Laboratory results reported in patent publication US12704506B2, “Microbial analysis without cell purification” (First Light Diagnostics, Inc., priority 2018, dated 2026).
Like-named read-outs stand apart in the source and are kept apart here.

Key:
[1] = tested on: K. pneumonaie strain in clinical urine sample BIUR0084; assay: automated MultiPath AST cartridge on clinical urine, Example 8; assay type: cell-based, K. pneumoniae; conditions: for sensitive/resistant call by MulitPath: clinical urine BIUR0084, 4 h growth, fold growth value of 2; for growth call at all antibiotic concentrations (MulitPath assay): clinical urine BIUR0084, fold growth value of 2, 4 h
P. aeruginosa = tested on: P. aeruginosa; set-up: key: previously determined antibiotic resistance (shown with “X”); conditions: cited from earlier work
K. oxytoca = tested on: K. oxytoca; set-up: key: previously determined antibiotic resistance (shown with “X”); conditions: cited from earlier work
K. pneumoniae = tested on: K. pneumoniae; set-up: key: previously determined antibiotic resistance (shown with “X”); conditions: cited from earlier work
E. coli = tested on: E. coli; set-up: key: previously determined antibiotic resistance (shown with “X”); conditions: cited from earlier work
P. mirabilis = tested on: P. mirabilis; set-up: key: previously determined antibiotic resistance (shown with “X”); conditions: cited from earlier work
E. coli BAA-2469 [2] = tested on: E. coli BAA-2469; set-up: unit not given beside the values; conditions: E. coli BAA-2469, regardless of the amount of S. aureus ATCC 25923 cells
E. coli BAA-2469 [3] = tested on: E. coli BAA-2469; set-up: unit not given beside the values
Description: Comparison Method: Results for the novel assay method described here were compared to broth microdilutions (BMD) performed according the […] 2018.

Compound | sensitive/resistant call by MulitPath [1] | growth call at all antibiotic concentrations (MulitPath assay) [1] | previously determined antibiotic resistance (P. aeruginosa; P. aeruginosa ATCC27853) | previously determined antibiotic resistance (P. aeruginosa; P. aeruginosa CDC0105) | previously determined antibiotic resistance (P. aeruginosa; P. aeruginosa CDC0111) | previously determined antibiotic resistance (P. aeruginosa; P. aeruginosa CDC0242) | previously determined antibiotic resistance (K. oxytoca; K. oxytoca CDC0028) | previously determined antibiotic resistance (K. oxytoca; K. oxytoca CDC0071) | previously determined antibiotic resistance (K. oxytoca; K. oxytoca CDC0147) | previously determined antibiotic resistance (K. pneumoniae; K. pneumoniae ATCC13883) | previously determined antibiotic resistance (K. pneumoniae; K. pneumoniae CDC0010) | previously determined antibiotic resistance (K. pneumoniae; K. pneumoniae CDC0016) | previously determined antibiotic resistance (K. pneumoniae; K. pneumoniae CDC0126) | previously determined antibiotic resistance (E. coli; E. coli ATCC25922) | previously determined antibiotic resistance (P. mirabilis; P. mirabilis ATCC7002) | previously determined antibiotic resistance (P. mirabilis; P. mirabilis CDC0029) | previously determined antibiotic resistance (P. mirabilis; P. mirabilis CDC0059) | previously determined antibiotic resistance (P. mirabilis; P. mirabilis CDC0155) | previously determined antibiotic resistance (P. mirabilis; P. mirabilis CDC0156) | previously determined antibiotic resistance (P. mirabilis; P. mirabilis CDC0159) | also measured
Cc1nnc(SCC2=C(C(=O)O)N3C(=O)[C@@H](NC(=O)Cn4cnnn4)[C@H]3SC2)s1 [Cefazolin] | resistant | growth | – | – | – | – | – | – | – | – | – | – | – | – | – | – | – | – | – | – | –
CC(C)(O/N=C(\C(=O)N[C@@H]1C(=O)N2C(C(=O)[O-])=C(C[n+]3ccccc3)CS[C@H]12)c1csc(N)n1)C(=O)O [Ceftazidime] | – | – | X | X | X | X | X | X | X | X | X | X | X | X | X | X | X | X | X | X | previously determined antibiotic resistance (P. aeruginosa; P. aeruginosa CDC0251): X; previously determined antibiotic resistance (P. aeruginosa; P. aeruginosa CDC0253): X; previously determined antibiotic resistance (K. pneumoniae; K. pneumoniae CDC0041): X; previously determined antibiotic resistance (K. pneumoniae; K. pneumoniae CDC0107): X; previously determined antibiotic resistance (K. pneumoniae; K. pneumoniae CDC0160): X; previously determined antibiotic resistance (E. coli; E. coli CDC0020): X; previously determined antibiotic resistance (E. coli; E. coli CDC0067): X; previously determined antibiotic resistance (E. coli; E. coli CDC0084): X; previously determined antibiotic resistance (E. coli; E. coli CDC0086): X; previously determined antibiotic resistance (E. coli; E. coli CDC0350): X
O=C(O)c1cn(C2CC2)c2cc(N3CCNCC3)c(F)cc2c1=O [Ciprofloxacin] | – | – | X | – | – | – | X | X | X | X | – | X | X | X | X | X | X | X | X | X | previously determined antibiotic resistance (P. aeruginosa; P. aeruginosa CDC0251): X; previously determined antibiotic resistance (P. aeruginosa; P. aeruginosa CDC0253): X; previously determined antibiotic resistance (P. aeruginosa; P. aeruginosa CDC0259): X; previously determined antibiotic resistance (P. aeruginosa; P. aeruginosa CDC0261): X; previously determined antibiotic resistance (P. aeruginosa; P. aeruginosa CDC0262): X; previously determined antibiotic resistance (K. pneumoniae; K. pneumoniae CDC0034): X; previously determined antibiotic resistance (K. pneumoniae; K. pneumoniae CDC0076): X; previously determined antibiotic resistance (K. pneumoniae; K. pneumoniae CDC0117): X; previously determined antibiotic resistance (E. coli; E. coli BAA-2452): X; previously determined antibiotic resistance (E. coli; E. coli BAA-2469): X; previously determined antibiotic resistance (E. coli; E. coli BAA-2471): X; previously determined antibiotic resistance (E. coli; E. coli CDC0017): X; previously determined antibiotic resistance (E. coli; E. coli CDC0019): X
C[C@@H](O)[C@H]1C(=O)N2C(C(=O)O)=C(S[C@@H]3CN[C@H](C(=O)N(C)C)C3)[C@H](C)[C@H]12 [Meropenem] | – | – | – | X | X | X | X | X | X | X | X | X | – | X | X | X | X | X | X | X | previously determined antibiotic resistance (P. aeruginosa; P. aeruginosa CDC0232): X; previously determined antibiotic resistance (P. aeruginosa; P. aeruginosa CDC0247): X; previously determined antibiotic resistance (K. pneumoniae; K. pneumoniae CDC0034): X; previously determined antibiotic resistance (K. pneumoniae; K. pneumoniae CDC0043): X; previously determined antibiotic resistance (K. pneumoniae; K. pneumoniae CDC0076): X; previously determined antibiotic resistance (K. pneumoniae; K. pneumoniae CDC0080): X; previously determined antibiotic resistance (E. coli; E. coli CDC0001): X; previously determined antibiotic resistance (E. coli; E. coli CDC0006): X; previously determined antibiotic resistance (E. coli; E. coli CDC0020): X; previously determined antibiotic resistance (E. coli; E. coli CDC0085): X; previously determined antibiotic resistance (E. coli; E. coli CDC0114): X
O=C1CN(/N=C/c2ccc([N+](=O)[O-])o2)C(=O)N1 [Nitrofurantoin] | – | – | – | – | – | – | – | – | – | – | – | – | – | – | – | – | – | – | – | – | MIC, novel 4-hour AST assay (MultiPath) (E. coli BAA-2469 [2]): 8; MIC, CLSI-like broth microdilution (E. coli BAA-2469 [3]; E. coli BAA-2469, in the absence of S. aureus): 8; MIC, CLSI-like broth microdilution (E. coli BAA-2469 [3]; E. coli BAA-2469, with a 100-fold excess of S. aureus ATCC 25923): 32
Trimethoprim/Sulfamethoxazole | resistant | growth | – | – | – | – | X | X | X | X | X | X | X | X | X | X | X | X | X | X | previously determined antibiotic resistance (K. pneumoniae; K. pneumoniae CDC0107): X; previously determined antibiotic resistance (K. pneumoniae; K. pneumoniae CDC0117): X; previously determined antibiotic resistance (E. coli; E. coli BAA-2469): X; previously determined antibiotic resistance (E. coli; E. coli BAA-2471): X; previously determined antibiotic resistance (E. coli; E. coli CDC0017): X; previously determined antibiotic resistance (E. coli; E. coli CDC0019): X; previously determined antibiotic resistance (E. coli; E. coli CDC0084): X
